# “Also recorded” adds a separate entry of the source.
# B1: leptin: murine leptin (Amgen) infused subcutaneously by osmotic pump (protein, UniProt P41160 22-167, looked up)
# Leptin: VPIQKVQDDTKTLIKTIVTRINDISHTQSVSAKQRVTGLDFIPGLHPILSLSKMDQTLAVYQQVLTSLPSQNVLQIANDLENLRDLLHLLAFSKSCSLPQTSGLQKPESLDGVLEASLYSTEVVALSRLQGSLQDILQQLDVSPEC
# Experiments:
# [1] = system: non-small cell lung carcinoma cells (SW1573); assay: Tumor cell proliferation (de novo DNA synthesis, 2H2O labeling) in SW1573 xenograft mice, gemcitabine; format: in vivo, human; conditions: male balb/C nu/nu mice, SW1573 s.c. in matrigel, increasing doses every other day, 5 days
# Experimental: (§1) Male balb/C nu/nu mice were implanted subcutaneously with non-small cell lung carcinoma cells (SW1573) cells in matrigel. Mice were labeled with 2H2O and treated with increasing doses of gemcitabine (Gem), administered every other day (as shown in FIG. 9). After 5 days, tumor, colon and bone marrow were removed using techniques well known in the art, and as described, supra. Cell proliferation was measured as described, supra. […] De novo DNA synthesis from all three cell types was measured concurrently using the methods of the present invention. Briefly, heavy water (^2H2O) is administered to living organisms (8% ^2H2O in drinking water). DNA is isolated, hydrolyzed to free dNs, and deuterium incorporation into the deoxyribose (dR) moiety of purine and pyrimidine dNs is measured by gas chromatography/mass spectrometry (GC/MS) as described, supra.
# bone marrow cells = assay: Bone marrow cell proliferation (de novo DNA synthesis, 2H2O labeling), gemcitabine study; format: in vivo, mouse; conditions: male balb/C nu/nu mice with SW1573, increasing doses every other day, 5 days
# Experimental: as §1
# colonocytes = assay: Colonocyte proliferation (de novo DNA synthesis, 2H2O labeling), gemcitabine study; format: in vivo, mouse; conditions: male balb/C nu/nu mice with SW1573; for colon cell (colonocyte) proliferation: increasing doses every other day, 5 days
# Experimental: as §1
# [2] = system: EMT7 mouse mammary carcinoma cells; assay: Tumor cell proliferation in EMT7 tumor-bearing mice, Gem and HU; format: in vivo; conditions: female balb/C nu/nu mice, EMT7 tumors; Gem 125 mg/kg every other day, HU 500 mg/kg daily; 5 days
# Experimental: Female balb/C nu/nu mice were implanted subcutaneously with approximately 106 EMT7 mouse mammary carcinoma cells in matrigel. Tumors were allowed to reach ca.1500 mm^3 in size. Mice were labeled with ^2H2O and treated with either 125mg/kg gemzar (gemcitabine or Gem) or 500 mg/kg hydroxyurea (HU). Gem was administered every other day; HU daily; and control saline daily. At the end of 5 days tumors were removed and cell proliferation was measured as described, supra.
# total liver cell = assay: Total liver cell proliferation (DNA synthesis) after CCl4; format: in vivo, mouse
# Experimental: SVJ mice were injected 2× weekly with 1.0 ml/kg or 0.25 mL/kg of CCl4 or vehicle for up to 4 weeks Cell proliferation was measured at 2, 7, 14, 21 and 28 days of ^2H2O administration and CCl4 treatment using the methods of the present invention as described, supra.
# liver collagen = assay: Liver collagen synthesis (2H into hydroxyproline) after CCl4; format: in vivo, mouse
# Experimental: Liver collagen synthesis was measured concurrently (i.e., simultaneously) with de novo DNA synthesis in the same CCl4-treated SJV mice. Collagen was purified from 10 mg of fresh total liver homogenate as follows: using a Polytron homogenizer, collagen was isolated from soft tissue by homogenizing in 0.5 mL 100 mM NaOH. Under these conditions, collagen remains insoluble while most other proteins are readily dissolved. After centrifugation at 7,000 ×g for 10 minutes at 4° C., the supernatant was discarded. The pellet was washed briefly with 2 mL H2O and solubilized in reducing Laemmli sample buffer (Bio-Rad, Hercules, Calif.) after boiling for 3 minutes. The dissolved material was size-fractionated by SDS-PAGE. […]
# Acetone precipitated total liver protein and PVDF-bound collagen were hydrolyzed by treating with 6 N HCl, 16 hours at 110° C. […] Hydroxyproline was analyzed on a DB225 GC column, starting temp 100° C. increasing 10° C./min to 220° C. with selected ion monitoring of m/z 352,353.
# Hydroxyproline is a molecule of interest and is measured as OH-proline, the molecule being essentially unique to collagen. Because of this fact, total liver protein hydrolysate can be derivatized and the ^2H enrichment of hydroxyproline determined by GC/MS as described, supra. […]
# [3] = Body water 2H2O enrichment in rats; format: in vivo, rat; conditions: rats maintained on 4% 2H2O in drinking water after i.p. priming bolus
# Experimental: ^2H2O labeling protocols in rodents consisted of an initial intraperitoneal priming bolus to 2.0-2.5% body water enrichment. The priming dose of ^2H2O (100%) was given to the rats (e.g., for a 225 g rat, 2% of 135 ml, or 2.7 ml, given in divided doses 1 hour apart) based on estimated 60% body weight as water, followed by administration of 4% ^2H2O in the drinking water. The 4% enrichment of ^2H2O in drinking water was chosen as a convenient dose that produces sufficient enrichments in biosynthetic products of interest and has no known toxicities. ^2H2O (70% and 100%) was purchased commercially from Cambridge Isotopes (Andover, Mass.). Drinking was ad-libitum. Rats were sacrificed by CO2 asphyxiation.
# Body water ^2H2O enrichments were measured serially. The steady state body ^2H2O enrichments attained in rats maintained on 4% ^2H2O in drinking water were approximately 3.0% and were stable over time in individual animals.
# [4] = human, in vivo, po
# Experimental: (§2) The ^2H2O was administered orally. The initial priming dose was carried out in the General Clinical Research Center (GCRC) of SF General Hospital. Subjects received a total of 350-400 mL of ^2H2O in the GCRC, given as divided doses over the course of 18-21 hours (70 mL of 70% ^2H2O, given every 3-4 hours), to achieve about 1.0% enrichment in the body water pool. The ^2H2O was purchased from-Isotec, Inc. (Miamisburgh, Ohio) and dispensed in sterile containers. Subjects then took 50 mL of 70% ^2H2O three times a day for 5 days, then 35-50 mL twice-a-day for the remainder of the 8-10 week labeling protocol. This protocol achieves near-plateau body ^2H2O enrichments (1.5-2.0%, see below) within 5-7 days in most subjects and was well-tolerated. Subjects received the ^2H2O as individual aliquots (35-50 mL of 70% ^2H2O) in plastic vials, which were stored in the refrigerator.
# ^2H2O enrichments in body water were measured from plasma or urine. A 15-20 μL sample was reacted in an evacuated GC vial with calcium carbide to produce acetylene. The acetylene gas was then transferred with a syringe and injected into an evacuated GC vial containing 10% bromine in carbon tetrachloride and incubated at room temperature for 2 hours to produce tetrabromoethane. […] The tetrabromoethane, containing hydrogen atoms from body H2O, was then analyzed by GC/MS.
# [5] = Tolerability of oral 2H2O labeling protocol in human subjects; format: in vivo; conditions: 8-10 week labeling protocol
# Experimental: as §2
# [6] = Food intake and body weight under 2H2O treatment in mice; format: in vivo, mouse; conditions: ca. 2% body water enrichment then 4% 2H2O drinking water, 21 days
# Experimental: Mice were injected with ^2H2O (deuterated water) at a dose to achieve approximately 2% enrichment in the body water pool. The normal drinking water was then replaced with water enriched to 4% ^2H2O. ^2H2O treatment had no impact on food intake or body weight. Twenty-one days following the start of ^2H2O administration, mice were fasted for four hours, anesthetized with isoflurane and exsanguinated via heart puncture. When possible, urine was collected at the same time.
# adipose tissue = assay: Adipose tissue dynamics (TG synthesis, de novo lipogenesis, adipocyte proliferation) in leptin treated ob/ob mice; format: in vivo, mouse
# Experimental: Four week old, female, C57/b16j mice (Jackson Labs Bar Harbor, […].) were divided into four groups: C57/b16j^+/? controls (con), ad libitum fed C57/b16j^lep-/lep-(ob/ob), leptin treated ob/ob (ob-lep) and food restricted ob/ob (ob-r). All mice were housed individually in hanging wire cages and given free access to water. The light cycle was on from noon to midnight and mean temperature was 73° F. Diets were from a purified formula with 1 g “dustless” pellets used for the ad lib fed animals and 45 mg for the food restricted ob/ob mice (Bio Serv, Frenchtown, N.J.). Mice were given 3 days to acclimate to the environment, during which time some weight loss was observed. After the acclimation period, food restriction or leptin treatment was begun and food intake and body weights were measured periodically. […]
# The percent of TG newly synthesized during the labeling period was calculated based on the precursor-product relationship, as described supra, using body water enrichment to estimate the maximal or asymptotic enrichment in TG-glycerol. The relationship between body water and the maximal TG-glycerol enrichment has been determined through combinatorial analysis (mass isotopomer distribution analysis MIDA) and by measurement of 100% replaced TG pools after long-term ^2H2O labeling. […] The fraction of TG which is newly synthesized is then calculated as: Fractional synthesis (f)=EM1/A1^∞. […]
molecule,measurement,setting,value
"Nc1ccn([C@@H]2O[C@H](CO)[C@@H](O)C2(F)F)c(=O)n1 [Gem, gemcitabine]",tumor cell proliferation,[1],inhibits
same,tumor cell proliferation,[1]; listed as gemcitabine,inhibited in tumor and bone marrow cells in a dose-response manner
same,bone marrow cell proliferation,bone marrow cells,inhibits
same,bone marrow cell proliferation,bone marrow cells; listed as gemcitabine,inhibited in tumor and bone marrow cells in a dose-response manner
same,colon cell (colonocyte) proliferation,colonocytes,relatively little effect
same,colon cell (colonocyte) proliferation,colonocytes; listed as gemcitabine,little inhibition
same,colonocyte proliferation at the lower experimental doses,colonocytes; lower experimental doses,may have a stimulatory effect
same,tumor cell proliferation relative to saline control,[2],caused reductions; also recorded: decreased
"NC(=O)NO [HU, hydroxyurea]",tumor cell proliferation relative to saline control,[2],caused reductions; also recorded: decreased
"ClC(Cl)(Cl)Cl [CCl4, carbon tetrachloride]",new liver cells present,total liver cell; after 4 weeks of repeated CCl4 dosing,~100%
same,total liver cell proliferation relative to vehicle control,"total liver cell; mice injected 2x weekly, both doses (1.0 ml/kg and 0.25 mL/kg), up to 4 weeks",significantly increased; also recorded: significant cell proliferation occurred at both doses
same,"liver collagen synthesis relative to vehicle control, high dose",liver collagen; high dose of CCl4 (1.0 ml/kg 2x weekly),significant collagen synthesis occurred only at the highest dose; also recorded: increased
same,"liver collagen synthesis relative to vehicle control, low dose",liver collagen; low dose of CCl4 (0.25 mL/kg 2x weekly),no effect
[2H]O[2H] [^2H2O],steady state body 2H2O enrichment,[3],approximately 3.0%
same,near-plateau body 2H2O enrichment,[4],1.5-2.0%
same,time to near-plateau body 2H2O enrichment,[4],5 to 7 days
same,tolerability of 2H2O protocol,[5],well-tolerated
same,impact on food intake or body weight,[6],no impact
B1,TG retained (body fat balance),adipose tissue; leptin treated ob/ob mice,body fat was lost
same,"effect on de novo lipogenesis, adipogenesis and triglyceride synthesis in adipose tissue","adipose tissue; ob/ob mice, murine leptin 2 μg/day s.c. osmotic pump, 21 days 2H2O",influenced all three pathways similarly
